# Values quoted from earlier work in patent publication US6960571B2, “Methods and compositions for administration of iron for the treatment of restless leg syndrome” (Luitpold Pharmaceuticals, Inc., priority 2003, dated 2005).
# Read-outs that look alike come from different tables or passages of the source.
compound,measurement,setting,value
NC(=O)N1c2ccccc2C=Cc2ccccc21 [Carbamazepine],% affected by side effects,"Epilepsy patients, fetal malformation, rash, hyponatremia, hepatotoxicity, blood disorders, ataxia, gastro-intestinal problems, sexual dysfunction, toxicity",1-33%
O=C1CN=C(c2ccccc2Cl)c2cc([N+](=O)[O-])ccc2N1 [Clonazepam],% affected by side effects,"Epilepsy patients, somnolence, depression, in-coordination",6-37%
Clc1cccc(Cl)c1N=C1NCCN1 [Clonidine],% affected by side effects,"Hypertension patients, reduced blood pressure, dermatitis, systemic side effects (dry mouth, somnolence, dizziness, headache)",8-89%
NCC1(CC(=O)O)CCCCC1 [Gabapentin],% affected by side effects,"Epilepsy patients, fatigue, dizziness, somnolence, ataxia",11-19%
CCCN[C@H]1CCc2nc(N)sc2C1 [Pramipexole],% affected by side effects,"Parkinson patients, somnolence, insomnia, nausea, constipation, hallucinations",9-28%
Cc1nnc2n1-c1ccc(Cl)cc1C(c1ccccc1Cl)=NC2 [Triazolam],% affected by side effects,"Insomnia patients, drowsiness, dizziness, memory impairment",1-14%
Pergolide w/ levodopa/carbidopa,% affected by side effects,"Parkinson patients, dyskinesia, nausea, hallucinations, rhinitis, constipation, pain",7-62%
levodopa/carbidopa,% affected by side effects,"Parkinson patients, dyskinesia, nausea, hallucinations",4-17%
